Article PMC11470957, “Principles of paralog-specific targeted protein degradation engaging the C-degron E3 KLHDC2” (Nature Communications, 2024)
Values joined by “and” are separate entries in the source; they are usually repeats but may differ in a detail not shown here. Identical values can stand only once.

Tests used:
KLHDC2^SBD [1] = molecular target: T1, KLHDC2^SBD (Homo sapiens, UniProt Q9Y2U9); test: Surface plasmon resonance binding to KLHDC2; parameters: KLHDC2^SBD (15-361) and its Avi-tagged counterpart were expressed in E. coli Rosetta2 cells; 6XHis-MBP (N, cleaved yes); made in house; host or cells: E. coli Rosetta2; conditions: for SPR Response: FigS3d
T1 sequence (Q9Y2U9 15-361): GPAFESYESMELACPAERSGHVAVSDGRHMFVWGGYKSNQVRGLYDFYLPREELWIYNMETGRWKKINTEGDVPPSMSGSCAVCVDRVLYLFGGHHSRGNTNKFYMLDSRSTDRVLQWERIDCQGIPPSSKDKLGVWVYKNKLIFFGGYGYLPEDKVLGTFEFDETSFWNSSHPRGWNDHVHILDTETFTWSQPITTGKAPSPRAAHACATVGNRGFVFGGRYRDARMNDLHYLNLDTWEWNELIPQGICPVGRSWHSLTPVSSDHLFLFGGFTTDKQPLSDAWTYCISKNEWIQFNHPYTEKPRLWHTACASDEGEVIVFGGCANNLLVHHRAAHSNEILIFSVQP
Method: Surface plasmon resonance (SPR) was utilized to determine kinetic parameters and binding affinity of KLHDC2 substrates using a PioneerFE (Sartorius). Experiments were carried out in 20 mM Tris, 200 mM NaCl, 1 mM TCEP, 0.01% Brij35, and 1% DMSO at pH 7.4 as a running buffer with a 100 µL/min flow rate at 20 °C.
The 10xHis-KLHDC2 was immobilized onto a Ni-NTA-coated biosensor chip (HisCap). The chip surface was conditioned using 10 mM HCl, 50 mM NaOH, and 0.1% SDS (50 µL at 100 µL/min) twice, followed by a 100 mM Tris buffer wash (100 µL at 100 µL/min). The surface was then activated using an injection of 0.5 M EDTA (125 µL at 25 µL/min) followed by an injection of 5 mM NiCl2 (125 µL at 25 µL/min). […] Channel 2 was treated identically to channel 3 except for protein loading to be used as a reference channel. […] 100% of the loop was injected with a 300 s dissociation time. All samples were run in triplicate. Data was analyzed using Qdat software and fit to a simple 1-site model.
The SPR experiments were performed to determine the binding affinities (KD) of KLHDC2-SJ46411 and KLHDC2-SJ46418 complexes. All the experiments were performed using a Biacore 1S+ instrument. […] The running buffer consisted of 20 mM Tris pH 7.5, 200 mM NaCl, 1 mM TCEP, 0.01% Brij35, and 4% DMSO. […] In brief, before the immobilization, the sensor chip surface was conditioned by injecting a mixture of (3:1 v/v) 8 M guanidine hydrochloride and 1 M NaOH at a flow rate of 5 μL/min for 2 min for two times. Then, running buffer was injected at a 30 μl/min flow rate for 1 min 3 times. Next, the Biotin CAPture reagent was injected at a flow rate of 2 μl/min for 5 min. Then, biotinylated KLHDC2 was only injected onto the active channel (channel 2).
Sample preparation was carried out precisely the same as SJ46411. All experiments were performed using a multi-cycle analysis method with a 30 μl/min flow rate, 120 S association, and 240 s dissociation time. All data were reference subtracted and corrected for DMSO mismatch. The sensorgrams were analyzed using Biacore insight evaluation software, and KD was determined using the 1:1 steady-state affinity fitting. Finally, all the analyzed data was replotted using GraphPad Prizm 10 software.

KLHDC2^SBD [2] = molecular target: T1, KLHDC2^SBD; test: ITC, binary binding of small molecule to KLHDC2^SBD
[3] = cell: ligand, syringe: KLHDC2^SBD

SMILES: COCCOc1cccc2ccc(-c3nc(CC(=O)NCC(=O)O)cs3)cc12 [SJ46418]
- Raw SPR response (KLHDC2^SBD [1]; 0.0976562 uM, time -29 s): 0.0989
- Raw SPR response (KLHDC2^SBD [1]; 0.0976562 uM, time -29.1 s): 0.1275
- Raw SPR response (KLHDC2^SBD [1]; 0.0976562 uM, time -29.2 s): 0.1501
- Raw SPR response (KLHDC2^SBD [1]; 0.0976562 uM, time -29.3 s): 0.2497
- Raw SPR response (KLHDC2^SBD [1]; 0.195312 uM, time -29 s): 0.0952
- Raw SPR response (KLHDC2^SBD [1]; 0.195312 uM, time -29.1 s): 0.1196
- Raw SPR response (KLHDC2^SBD [1]; 0.195312 uM, time -29.2 s): 0.1572
- Raw SPR response (KLHDC2^SBD [1]; 0.195312 uM, time -29.3 s): 0.2514
- Raw SPR response (KLHDC2^SBD [1]; 0.390625 uM, time -29 s): 0.1406
- Raw SPR response (KLHDC2^SBD [1]; 0.390625 uM, time -29.1 s): 0.1812
- Raw SPR response (KLHDC2^SBD [1]; 0.390625 uM, time -29.2 s): 0.2616
- Raw SPR response (KLHDC2^SBD [1]; 0.390625 uM, time -29.3 s): 0.3693
- Raw SPR response (KLHDC2^SBD [1]; 0.78125 uM, time -29 s): 0.1584
- Raw SPR response (KLHDC2^SBD [1]; 0.78125 uM, time -29.1 s): 0.1946
- Raw SPR response (KLHDC2^SBD [1]; 0.78125 uM, time -29.2 s): 0.2669
- Raw SPR response (KLHDC2^SBD [1]; 0.78125 uM, time -29.3 s): 0.3893
- Raw SPR response (KLHDC2^SBD [1]; 1.5625 uM, time -29 s): 0.1505
- Raw SPR response (KLHDC2^SBD [1]; 1.5625 uM, time -29.1 s): 0.1878
- Raw SPR response (KLHDC2^SBD [1]; 1.5625 uM, time -29.2 s): 0.2713
- Raw SPR response (KLHDC2^SBD [1]; 1.5625 uM, time -29.3 s): 0.3827
- Raw SPR response (KLHDC2^SBD [1]; 2.34375 uM, time -29 s): 0.1726
- Raw SPR response (KLHDC2^SBD [1]; 2.34375 uM, time -29.1 s): 0.2365
- Raw SPR response (KLHDC2^SBD [1]; 2.34375 uM, time -29.2 s): 0.3258
- Raw SPR response (KLHDC2^SBD [1]; 2.34375 uM, time -29.3 s): 0.5246
- Raw SPR response (KLHDC2^SBD [1]; 3.125 uM, time -29 s): 0.1584
- Raw SPR response (KLHDC2^SBD [1]; 3.125 uM, time -29.1 s): 0.2098
- Raw SPR response (KLHDC2^SBD [1]; 3.125 uM, time -29.2 s): 0.2855
- Raw SPR response (KLHDC2^SBD [1]; 3.125 uM, time -29.3 s): 0.3398
- Raw SPR response (KLHDC2^SBD [1]; 4.6875 uM, time -29 s): 0.1506
- Raw SPR response (KLHDC2^SBD [1]; 4.6875 uM, time -29.1 s): 0.2195
- Raw SPR response (KLHDC2^SBD [1]; 4.6875 uM, time -29.2 s): 0.3095
- Raw SPR response (KLHDC2^SBD [1]; 4.6875 uM, time -29.3 s): 0.4038
- Raw SPR response (KLHDC2^SBD [1]; 12.5 uM, time -29 s): 0.1017
- Raw SPR response (KLHDC2^SBD [1]; 12.5 uM, time -29.1 s): 0.1107
- Raw SPR response (KLHDC2^SBD [1]; 12.5 uM, time -29.2 s): 0.1281
- Raw SPR response (KLHDC2^SBD [1]; 12.5 uM, time -29.3 s): 0.1417
- Raw SPR data, fit (KLHDC2^SBD [1]; 0.09765625 Fit, time -29 s): -0.002337
- Raw SPR data, fit (KLHDC2^SBD [1]; 0.09765625 Fit, time -29.1 s): -0.002345
- Raw SPR data, fit (KLHDC2^SBD [1]; 0.09765625 Fit, time -29.2 s): -0.002354
- Raw SPR data, fit (KLHDC2^SBD [1]; 0.09765625 Fit, time -29.3 s): -0.002362
- Raw SPR data, fit (KLHDC2^SBD [1]; 0.1953125Fit uM, time -29 s): 0.003849
- Raw SPR data, fit (KLHDC2^SBD [1]; 0.1953125Fit uM, time -29.1 s): 0.003863
- Raw SPR data, fit (KLHDC2^SBD [1]; 0.1953125Fit uM, time -29.2 s): 0.003876
- Raw SPR data, fit (KLHDC2^SBD [1]; 0.1953125Fit uM, time -29.3 s): 0.003889
- Raw SPR data, fit (KLHDC2^SBD [1]; 0.390625fit, time -29 s): 0.007264
- Raw SPR data, fit (KLHDC2^SBD [1]; 0.390625fit, time -29.1 s): 0.007289
- Raw SPR data, fit (KLHDC2^SBD [1]; 0.390625fit, time -29.2 s): 0.007315
- Raw SPR data, fit (KLHDC2^SBD [1]; 0.390625fit, time -29.3 s): 0.00734
- Raw SPR data, fit (KLHDC2^SBD [1]; 0.78125 fit, time -29 s): 0.01901
- Raw SPR data, fit (KLHDC2^SBD [1]; 0.78125 fit, time -29.1 s): 0.01908
- Raw SPR data, fit (KLHDC2^SBD [1]; 0.78125 fit, time -29.2 s): 0.01915
- Raw SPR data, fit (KLHDC2^SBD [1]; 0.78125 fit, time -29.3 s): 0.01921
- Raw SPR data, fit (KLHDC2^SBD [1]; 1.5625 fit, time -29 s): 0.01693
- Raw SPR data, fit (KLHDC2^SBD [1]; 1.5625 fit, time -29.1 s): 0.01699
- Raw SPR data, fit (KLHDC2^SBD [1]; 1.5625 fit, time -29.2 s): 0.01704
- Raw SPR data, fit (KLHDC2^SBD [1]; 1.5625 fit, time -29.3 s): 0.0171
- Raw SPR data, fit (KLHDC2^SBD [1]; 2.34375fit, time -29 s): 0.02325
- Raw SPR data, fit (KLHDC2^SBD [1]; 2.34375fit, time -29.1 s): 0.02333
- Raw SPR data, fit (KLHDC2^SBD [1]; 2.34375fit, time -29.2 s): 0.02341
- Raw SPR data, fit (KLHDC2^SBD [1]; 2.34375fit, time -29.3 s): 0.0235
- Raw SPR data, fit (KLHDC2^SBD [1]; 3.125 fit, time -29 s): 0.02052
- Raw SPR data, fit (KLHDC2^SBD [1]; 3.125 fit, time -29.1 s): 0.02059
- Raw SPR data, fit (KLHDC2^SBD [1]; 3.125 fit, time -29.2 s): 0.02066
- Raw SPR data, fit (KLHDC2^SBD [1]; 3.125 fit, time -29.3 s): 0.02074
- Raw SPR data, fit (KLHDC2^SBD [1]; 4.6875 fit, time -29 s): 0.02316
- Raw SPR data, fit (KLHDC2^SBD [1]; 4.6875 fit, time -29.1 s): 0.02324
- Raw SPR data, fit (KLHDC2^SBD [1]; 4.6875 fit, time -29.2 s): 0.02332
- Raw SPR data, fit (KLHDC2^SBD [1]; 4.6875 fit, time -29.3 s): 0.0234
- Raw SPR data, fit (KLHDC2^SBD [1]; 12.5 fit, time -29 s): 0.01922
- Raw SPR data, fit (KLHDC2^SBD [1]; 12.5 fit, time -29.1 s): 0.01929
- Raw SPR data, fit (KLHDC2^SBD [1]; 12.5 fit, time -29.2 s): 0.01935
- Raw SPR data, fit (KLHDC2^SBD [1]; 12.5 fit, time -29.3 s): 0.01942
- SPR Response (KLHDC2^SBD [1]; analyte 0.0977 μM): 0.48 RU
- SPR Response (KLHDC2^SBD [1]; analyte 0.195 μM): 0.7348 RU
- SPR Response (KLHDC2^SBD [1]; analyte 0.391 μM): 1.4491 RU
- SPR Response (KLHDC2^SBD [1]; analyte 0.781 μM): 2.3401 RU
- SPR Response (KLHDC2^SBD [1]; analyte 1.56 μM): 3.3797 RU
- SPR Response (KLHDC2^SBD [1]; analyte 2.34 μM): 3.8756 RU
- SPR Response (KLHDC2^SBD [1]; analyte 4.69 μM): 4.4852 RU
- SPR Response (KLHDC2^SBD [1]; analyte 12.5 μM): 5.3052 RU
- SPR Rmax (KLHDC2^SBD [1]; n=1): 5.70 +/- 0.20
- Kd (KLHDC2^SBD [1]; read-out: SPR Kd): 1000 nM and 983 nM
- Kd (KLHDC2^SBD [2]; ITC Kd, as printed in Fig 2d/3b): 210 nM
- Kd (KLHDC2^SBD [2]; ITC Kd, cell: ligand, syringe: KLHDC2^SBD): 216 ± 17 nM
- Kd (KLHDC2^SBD [2]; Kd, ITC, syringe KLHDC2, cell compound, Rep1, Rep2): 205 nM and 229 nM
- ITC -TΔS (KLHDC2^SBD [2]; [3]): -0.94 +/- 0.02 kcal/mol-1
- ITC stoichiometry of binding N (KLHDC2^SBD [2]; [3]): 0.9
- ITC ΔG (KLHDC2^SBD [2]; [3]): -8.82 +/- 0.04 kcal/mol-1
- ITC ΔH (KLHDC2^SBD [2]; [3]): -7.88 +/- 0.07 kcal/mol-1
